The experiment relates to C. tyrobutyricum adapted culture from the FBB. Format: cell-based, Clostridium tyrobutyricum. The conditions noted are these: butyrate concentration increased from nil to 30 g/L.

SMILES strings stand for the structures.

Turning to `CCCC(=O)O` [butyric acid], the growth ability retained entry is given as “more than 50%”.
